Patent US9604931B2, “Nuclear receptor binding agents” (GTx, Inc., priority 2007, dated 2017)
Entries after “also recorded” stand apart in the source; their conditions may differ.

Assays:
[1] = target: ER-β ligand binding domain (LBD) (Homo sapiens (Human), UniProt Q92731); test: Ligand binding assay of 14m and 12u, ER-β (Example 22A)
[2] = test system: Ang II induced left ventricular hypertrophy; test: Angiotensin II model, cardiac hypertrophy; format: in vivo, ovariectomized C57/BJ6 and ERβKO mice; settings: 21 days
Method: (§1) Thirty, ten week old female ovariectomized C57/BJ6 mice, were obtained from Harlan/Sprague Dawley and were housed in 12 hour on/off lighting and fed rodent chow devoid of soy or most plant products. Ovariectomized ERβKO mice were obtained from Ken Korach, NIEHS. The ERβ mice were originally created by Drs. Smithies, Gustafsson, and colleagues. All mice were identically housed and fed the same chow.
(§2) This pellet is well documented to produce physiological levels of E2 in the serum of mice.
At inception and after 21 days, the mice were weighed. Blood pressure was measured 4 times during the 21-day period, using the CODA non-invasive blood pressure measuring system. At 21 days the hearts were stopped in diastole by CdCl2 administration. The hearts were removed and weighed and the ratio of heart per total body weight was determined. Next, the hearts were dissected and the left ventricles were weighed and the ratio of left ventricle per total body weight was determined. […] For comparison ERβ gene-deleted mice were subjected to the same conditions of Ang II±E2 or the 12u compound. For histology, the hearts were and sectioned, and stained with hematoxylin and eosin, or Masson stain (for collagen)

[3] = test system: Ang II induced cardiac fibrosis; test: Angiotensin II model, cardiac fibrosis; format: in vivo, ovariectomized C57/BJ6 and ERβKO mice
Method: as §1, §2
Left ventricular tissues were fixed in 4% paraformaldehyde solution. Paraffin-embedded tissue sections (5 um) were stained with Masson's trichrome for the presence of interstitial collagen fiber accumulation indicative of cardiac fibrosis. The ratio of interstitial fibrosis to the total left ventricular area was calculated from 10 randomly selected microscopic fields from each of five sections per heart using NIH imageJ analysis software (n=5 mice per condition). Further quantification of collagen deposition was made by ventricular content of hydroxyproline, a breakdown product of collagen, determined by a modified method of Bergman and Loxley (19). The ventricular tissues were homogenized and hydrolyzed in 6 N HCl at 110° C. for 24 h in a sealed reaction vial. The sample was dried and the residue re-suspended in sterile water. 0.5 ml of chloramine T was added for 5 min, then Ehrlich's reagent (3 ml) was added and the mixture left for 18 h at room temperature. The intensity of the red coloration that developed was measured by a spectrophotometer at 558 nm.

ARPE-19 cells = test: Fluorescent detection of intracellular ROS; format: cell-based, Human; settings: 150 μM tBH
From the text: Cells were allowed to adhere overnight. […] Removed and washed cells once with HBSS. […] Each drug concentration was done in triplicates.

[4] = test system: MHC, phospho-ERK, MCIP-1 in left ventricle; test: Angiotensin II model, markers of cardiac hypertrophy; format: in vivo, ovariectomized C57/BJ6 and ERβKO mice
Method: as §1, §2
RT-PCR was accomplished using the following primers. GAPDH expression served as control gene for all studies. MCIP1, 5′-[…] and […]; GAPDH, 5′-[…] and […]. • For relative protein detection, immunoblots were carried out on protein extracted from the left ventricles of mice from all conditions, following separation by SDS-PAGE and transfer to nitrocellulose. Cardiac myosin heavy chain (MHC) and MCIP antibodies (ABCAM, Cambridge, Mass. and Santa Cruz Biotechnology Inc., Santa Cruz, Calif.), and brain natriuretic peptide (BNP) antibodies (Penninsula Labs, Mountain View, Calif.) were used.

Sequence of ER-β ligand binding domain (LBD) (Q92731 264-498, species assumed): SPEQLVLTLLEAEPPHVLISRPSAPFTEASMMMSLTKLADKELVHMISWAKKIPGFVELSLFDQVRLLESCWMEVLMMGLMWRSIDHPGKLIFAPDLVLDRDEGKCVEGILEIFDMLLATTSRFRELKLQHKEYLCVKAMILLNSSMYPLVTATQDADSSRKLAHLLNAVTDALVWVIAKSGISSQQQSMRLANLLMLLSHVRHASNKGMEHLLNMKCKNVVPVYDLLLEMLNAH

Compound	Ki [1] [nM]	Ang II induced increase in heart size and total heart weight [2]	Ang II induced left ventricular hypertrophy (LVW/BW) ([2]; wildtype but not ERβKO mice)	Ventricular hydroxyproline content ([3]; WT mice, not ERβKO)	Ang II induced cardiac fibrosis (interstitial collagen) ([3]; only in WT mice)	Prevention of ROS formation / oxidative stress (ARPE-19 cells)	Ang II induced elevations in phospho-ERK (p-ERK) ([4]; wildtype animals)	MCIP-1 levels ([4]; wildtype mice, irrespective of Ang II treatment)
N#Cc1cn(-c2ccc(O)cc2)c(=O)c2c(O)cc(O)cc12 [14m, 6,8-dihydroxy-2-(4-hydroxyphenyl)-1-oxo-1,2-dihydroisoquinoline-4-carbonitrile]	5.35							
O=c1c2c(O)cc(O)cc2c(Br)cn1-c1ccc(O)cc1 [12u, 4-bromo-6,8-dihydroxy-2-(4-hydroxyphenyl)isoquinolin-1(2H)-one]		prevented the increased size	largely prevented; also recorded: prevented Ang II induced cardiac hypertrophy and increased heart size	significantly inhibited the hydroxyproline content	significantly inhibited fibrosis; also recorded: prevented	did not seem to have any effect	partially prevented	robustly elevated MCIP-1 levels
